PMC8501799, “Constitutive signal bias mediated by the human GHRHR splice variant 1” (Proceedings of the National Academy of Sciences of the …, 2021)

Legend:
Format in all cases: cell-based, human
[1] = tested on: SV1 mutants; assay: cAMP accumulation, peptide-binding pocket mutants of SV1; details: impairing contacts in the peptide-binding pocket; HEK293T; Fig. 4D
Experimental: (§1) GHRH-stimulated cAMP accumulation was measured by a LANCE Ultra cAMP kit (PerkinElmer). Briefly, HEK293T cells (24 h after transfection with SV1 or GHRHR) or prostate cancer cells were digested by 0.2% (wt/vol) EDTA and washed once with Dulbecco’s phosphate-buffered saline (PBS). Cells were then resuspended with stimulation buffer (Hanks’ balanced salt solution [HBSS] supplemented with 5 mM HEPES, 0.5 mM IBMX, and 0.1% [wt/vol] bovine serum albumin [BSA], pH 7.4) to a density of 0.6 million cells per milliliter and added to 384-well white plates (3,000 cells per well). […] The reaction was stopped by adding 5 μL Eu-cAMP tracer and 5 μL ULight-anti-cAMP. After 1 h RT incubation, TR-FRET signals (excitation: 320 nm, emission: 615 and 665 nm) were measured by an Envision plate reader (PerkinElmer). cAMP concentrations were interpolated by a standard curve.

[2] = tested on: GHRHR ΔECD; assay: cAMP accumulation
Experimental: as §1
(§2) All functional study data were analyzed using Prism 7 (GraphPad) and presented as means ± SEM from at least three independent experiments. Concentration-response curves were evaluated with a three-parameter logistic equation. The significance was determined with either two-tailed Student’s t test or one-way ANOVA, and P < 0.05 is considered statistically significant.
Table S2. Effects of residue mutation or truncation in the ECD of GHRHR on GHRH-induced cAMP […]
Mutant pEC50 Emax (% WT GHRHR) expression ΔLog (τ/KA) […]
cAMP accumulation data were analyzed using a three-parameter logistic equation to determine pEC50 and Emax values. pEC50 is the negative logarithm of the molar concentration of agonist that induced half the maximal response. Emax for mutants is expressed as a percentage of the WT GHRHR. Data were analyzed by nonlinear regression using the operational model equation to determine t he logR values (logτ/KA, i.e., logarithm of the transduction ratio). τ is the effi cacy value of the agonist and was corrected by cell surface expression of the receptor. KA is dissociation constant. Changes in transduction ratio (ΔlogR) were calculated to determine the relative effectiveness of the mutants. All values are means ± S.E.M. of at le ast three ind ep en dent experiments (n = 3-5) conducted in quadruplicate. Statistical analysis was carried out by comparing the control responses in the WT GHRHR. **, P < 0.01 and ***, P < 0.001, determined by one-way

[3] = tested on: SV1 L294A; assay: cAMP accumulation; details: Table S4, mean ± SEM
Experimental: as §1, §2
(§3) Table S4. Effects of residue mutation in the ligand-binding pocket of SV1 on GHRH-induced cAMP […]
(§4) Mutant pEC50 Emax Cell surface expression ΔLog (τ/KA)
(§5) (% WT GHRHR) (% WT GHRHR) cAMP accumulation data were analyzed using a three-parameter logistic equation to determine pEC50 and Emax values. pEC50 is the negative logarithm of the molar concentration of agonist that induced half the maximal response. Emax for mutants is expressed as a percentage of the WT GHRHR. Data were analyzed by nonlinear regression using the operational model equation to determine t he logR values (logτ/KA, i.e., logarithm of the transduction ratio). τ is the effi cacy value of the agonist and was corrected by cell surface expression of the receptor. KA is dissociation constant. Changes in transduction ratio (ΔlogR) were calculated to determine the relative effectiveness of the mutants. All values are means ± S.E.M. of four independent experiments (n = 4) conducted in quadruplicate. Statistical analysis was carried out by comparing the control responses in the WT-SV1. *, P < 0.05, **, P < 0.01 and ***, P < 0.001, determined by one-way

[4] = tested on: SV1 S145A; assay: cAMP accumulation; details: Table S4, mean ± SEM
Experimental: as §1, §2, §3, §4, §5

[5] = tested on: SV1 L290A; assay: cAMP accumulation; details: Table S4, mean ± SEM
Experimental: as §1, §2, §3, §4, §5

[6] = tested on: SV1 H146A; assay: cAMP accumulation; details: Table S4, mean ± SEM
Experimental: as §1, §2, §3, §4, §5

[7] = tested on: SV1 F62A; assay: cAMP accumulation; details: Table S4, mean ± SEM
Experimental: as §1, §2, §3, §4, §5

[8] = tested on: SV1 K66A; assay: cAMP accumulation; details: Table S4, mean ± SEM
Experimental: as §1, §2, §3, §4, §5

[9] = tested on: SV1 Y69A; assay: cAMP accumulation; details: Table S4, mean ± SEM
Experimental: as §1, §2, §3, §4, §5

[10] = tested on: SV1 I225A; assay: cAMP accumulation; details: Table S4, mean ± SEM
Experimental: as §1, §2, §3, §4, §5

[11] = tested on: SV1 K118A; assay: cAMP accumulation; details: Table S4, mean ± SEM
Experimental: as §1, §2, §3, §4, §5

[12] = tested on: SV1 V65A; assay: cAMP accumulation; details: Table S4, mean ± SEM
Experimental: as §1, §2, §3, §4, §5

[13] = HEK293T, LANCE Ultra cAMP, 30 min RT, 0.5 mM IBMX, n = 4 in quadruplicate
[14] = HEK293T, n = 4 in quadruplicate
[15] = operational model, τ corrected by cell surface expression, n = 4

CC[C@H](C)[C@H](NC(=O)[C@H](C)NC(=O)[C@H](CC(=O)O)NC(=O)[C@H](C)NC(=O)[C@@H](N)Cc1ccc(O)cc1)C(=O)N[C@@H](Cc1ccccc1)C(=O)N[C@H](C(=O)N[C@@H](CC(N)=O)C(=O)N[C@@H](CO)C(=O)N[C@@H](Cc1ccc(O)cc1)C(=O)N[C@@H](CCCNC(=N)N)C(=O)N[C@@H](CCCCN)C(=O)N[C@H](C(=O)N[C@@H](CC(C)C)C(=O)NCC(=O)N[C@@H](CCC(N)=O)C(=O)N[C@@H](CC(C)C)C(=O)N[C@@H](CO)C(=O)N[C@@H](C)C(=O)N[C@@H](CCCNC(=N)N)C(=O)N[C@@H](CCCCN)C(=O)N[C@@H](CC(C)C)C(=O)N[C@@H](CC(C)C)C(=O)N[C@@H](CCC(N)=O)C(=O)N[C@@H](CC(=O)O)C(=O)N[C@H](C(=O)N[C@@H](CCSC)C(=O)N[C@@H](CO)C(=O)N[C@@H](CCCNC(=N)N)C(=O)N[C@@H](CCC(N)=O)C(=O)N[C@@H](CCC(N)=O)C(=O)NCC(=O)N[C@@H](CCC(=O)O)C(=O)N[C@@H](CO)C(=O)N[C@@H](CC(N)=O)C(=O)N[C@@H](CCC(N)=O)C(=O)N[C@@H](CCC(=O)O)C(=O)N[C@@H](CCCNC(=N)N)C(=O)NCC(=O)N[C@@H](C)C(=O)N[C@@H](CCCNC(=N)N)C(=O)N[C@@H](C)C(=O)N[C@@H](CCCNC(=N)N)C(=O)N[C@@H](CC(C)C)C(N)=O)[C@@H](C)CC)C(C)C)[C@@H](C)O [GHRH, growth hormone–releasing hormone]
potency of GHRH-induced cAMP accumulation [1]: dramatically decreased the potency
cAMP responses after deletion of the entire ECD ([2]; HEK293T, Fig. 1B): diminished cAMP responses
pEC50 of cAMP accumulation ([2]; Table S2, HEK293T, LANCE Ultra cAMP, 30 min RT, 0.5 mM IBMX, mean ± SEM, n = 3-5 in quadruplicate): 5.53 ± 0.07
Emax of cAMP accumulation ([2]; Table S2, HEK293T, mean ± SEM, n = 3-5 in quadruplicate): 111.27 ± 3.65 % WT GHRHR
ΔLog (τ/KA) ([2]; Table S2, operational model, τ corrected by cell surface expression, relative to WT GHRHR, mean ± SEM): -4.55 ± 0.04
pEC50 of cAMP accumulation [3, 13]: 5.32 ± 0.10
Emax of cAMP accumulation [3, 14]: 106.26 ± 5.25 % WT GHRHR
ΔLog (τ/KA) [3, 15]: -4.96 ± 0.12
pEC50 of cAMP accumulation [4, 13]: 6.34 ± 0.09
Emax of cAMP accumulation [4, 14]: 101.87 ± 3.50 % WT GHRHR
ΔLog (τ/KA) [4, 15]: -4.22 ± 0.14
pEC50 of cAMP accumulation [5, 13]: 5.58 ± 0.08
Emax of cAMP accumulation [5, 14]: 109.60 ± 3.90 % WT GHRHR
ΔLog (τ/KA) [5, 15]: -4.56 ± 0.09
pEC50 of cAMP accumulation [6, 13]: 5.07 ± 0.08
Emax of cAMP accumulation [6, 14]: 101.06 ± 4.83 % WT GHRHR
ΔLog (τ/KA) [6, 15]: -4.64 ± 0.11
pEC50 of cAMP accumulation [7, 13]: 5.28 ± 0.08
Emax of cAMP accumulation [7, 14]: 105.64 ± 4.54 % WT GHRHR
ΔLog (τ/KA) [7, 15]: -4.41 ± 0.14
pEC50 of cAMP accumulation [8, 13]: 5.60 ± 0.08
Emax of cAMP accumulation [8, 14]: 106.82 ± 4.09 % WT GHRHR
ΔLog (τ/KA) [8, 15]: -4.02 ± 0.11
pEC50 of cAMP accumulation [9, 13]: 5.44 ± 0.09
Emax of cAMP accumulation [9, 14]: 104.75 ± 4.29 % WT GHRHR
ΔLog (τ/KA) [9, 15]: -3.81 ± 0.10
pEC50 of cAMP accumulation [10, 13]: 4.98 ± 0.12
Emax of cAMP accumulation [10, 14]: 76.03 ± 5.48 % WT GHRHR
ΔLog (τ/KA) [10, 15]: -3.85 ± 0.13
pEC50 of cAMP accumulation [11, 13]: 4.61 ± 0.12
Emax of cAMP accumulation [11, 14]: 92.40 ± 7.25 % WT GHRHR
ΔLog (τ/KA) [11, 15]: -4.51 ± 0.13
pEC50 of cAMP accumulation [12, 13]: 5.33 ± 0.09
Emax of cAMP accumulation [12, 14]: 106.08 ± 4.91 % WT GHRHR
ΔLog (τ/KA) [12, 15]: -4.08 ± 0.12
